# From publication PMC8923172 (Antimicrobial Agents and Chemotherapy, 2022)
# Marks after values point to notes of the source that are not given here. Residues, ends and D or L forms follow the SMILES beside them.
# Experiments:
# [1] = Hematology of rats at the end of treatment; type: in vivo, Sprague-Dawley rats; conditions: median (IQR)
# [2] = Coagulation in rats at the end of treatment; type: in vivo, Sprague-Dawley rats; conditions: median (IQR)
smiles,measurement,setting,value
"CC[C@H](C)[C@@H]1NC(=O)[C@@H]2CSSC[C@H](NC(=O)[C@H](CCCNC(=N)N)NC(=O)[C@@H]3CSSC[C@H](NC1=O)C(=O)N[C@@H]([C@@H](C)O)C(=O)N[C@@H](CCCNC(=N)N)C(=O)NCC(=O)N[C@@H](Cc1ccccc1)C(=O)N3)C(=O)N[C@@H](CC(C)C)C(=O)N[C@H]1CSSC[C@H](NC(=O)[C@H](C(C)C)NC(=O)CNC(=O)[C@H](CCCNC(=N)N)NC(=O)[C@H](CCCNC(=N)N)NC1=O)C(=O)N[C@@H](CCCNC(=N)N)C(=O)N2 [RTD-1, Rhesus theta (θ) defensin-1] (HELM PEPTIDE1{G.F.C.R.C.L.C.R.R.G.V.C.R.C.I.C.T.R}$PEPTIDE1,PEPTIDE1,3:R3-16:R3|PEPTIDE1,PEPTIDE1,5:R3-14:R3|PEPTIDE1,PEPTIDE1,7:R3-12:R3|PEPTIDE1,PEPTIDE1,1:R1-18:R2$$$V2.0)","Basophils, absolute","[1]; female, 5 mg/kg/day",0.02 (0.02) 10^3/mm^3
same,"Eosinophils, absolute","[1]; female, 5 mg/kg/day",0.30 (0.23) 10^3/mm^3
same,HDW,"[1]; female, 5 mg/kg/day",2.37 (0.16) g/dL
same,Hematocrits,"[1]; female, 5 mg/kg/day",40.50 (1.90) %
same,Hemoglobin,"[1]; female, 5 mg/kg/day",13.50 (1.00) g/dL
same,"LUC, absolute","[1]; female, 5 mg/kg/day",0.02 (0.03) 10^3/mm^3
same,"Lymphocytes, absolute","[1]; female, 5 mg/kg/day",4.78 (3.21) 10^3/mm^3
same,MCH,"[1]; female, 5 mg/kg/day",19.10 (1.00) pg
same,MCHC,"[1]; female, 5 mg/kg/day",33.40 (0.40) g/dL
same,MCV,"[1]; female, 5 mg/kg/day",57.90 (2.80) fL
same,"Monocytes, absolute","[1]; female, 5 mg/kg/day",0.17 (0.08) 10^3/mm^3
same,"Neutrophils, absolute","[1]; female, 5 mg/kg/day",1.33 (0.99) 10^3/mm^3
same,Platelets,"[1]; female, 5 mg/kg/day",801.00 (306.00) 10^3/mm^3
same,RBC,"[1]; female, 5 mg/kg/day",6.88 (0.33) 10^6/mm^3
same,RDW,"[1]; female, 5 mg/kg/day",12.70 (0.80) %
same,"Reticulocytes, absolute","[1]; female, 5 mg/kg/day",256.70 (53.50) 10^3/mm^3
same,WBC,"[1]; female, 5 mg/kg/day",6.50 (3.50) 10^3/mm^3
same,"Basophils, absolute","[1]; female, 10 mg/kg/day",0.04 (0.02) 10^3/mm^3
same,"Eosinophils, absolute","[1]; female, 10 mg/kg/day",0.33 (0.14) 10^3/mm^3
same,HDW,"[1]; female, 10 mg/kg/day",2.45 (0.16) g/dL
same,Hematocrits,"[1]; female, 10 mg/kg/day",41.15 (1.83) %
same,Hemoglobin,"[1]; female, 10 mg/kg/day",13.70 (0.38) g/dL
same,"LUC, absolute","[1]; female, 10 mg/kg/day",0.04 (0.03) 10^3/mm^3
same,"Lymphocytes, absolute","[1]; female, 10 mg/kg/day",7.13 (1.76)^c 10^3/mm^3
same,MCH,"[1]; female, 10 mg/kg/day",18.95 (0.45) pg
same,MCHC,"[1]; female, 10 mg/kg/day",33.25 (0.35) g/dL
same,MCV,"[1]; female, 10 mg/kg/day",57.30 (2.43) fL
same,"Monocytes, absolute","[1]; female, 10 mg/kg/day","0.39 (0.13)^c^,^d 10^3/mm^3"
same,"Neutrophils, absolute","[1]; female, 10 mg/kg/day",2.18 (1.30) 10^3/mm^3
same,Platelets,"[1]; female, 10 mg/kg/day",939.00 (314.75) 10^3/mm^3
same,RBC,"[1]; female, 10 mg/kg/day",7.21 (0.40) 10^6/mm^3
same,RDW,"[1]; female, 10 mg/kg/day",12.95 (0.40) %
same,"Reticulocytes, absolute","[1]; female, 10 mg/kg/day",277.25 (42.00) 10^3/mm^3
same,WBC,"[1]; female, 10 mg/kg/day",10.75 (3.68)^c 10^3/mm^3
same,"Basophils, absolute","[1]; female, 20 mg/kg, day 2",0.06 (0.06) 10^3/mm^3
same,"Eosinophils, absolute","[1]; female, 20 mg/kg, day 2","0.13 (0.06)^c^,^e 10^3/mm^3"
same,HDW,"[1]; female, 20 mg/kg, day 2",2.37 (0.32) g/dL
same,Hematocrits,"[1]; female, 20 mg/kg, day 2",46.85 (14.28) %
same,Hemoglobin,"[1]; female, 20 mg/kg, day 2",15.15 (4.58) g/dL
same,"LUC, absolute","[1]; female, 20 mg/kg, day 2",0.05 (0.03) 10^3/mm^3
same,"Lymphocytes, absolute","[1]; female, 20 mg/kg, day 2",5.56 (2.93) 10^3/mm^3
same,MCH,"[1]; female, 20 mg/kg, day 2",19.60 (0.88) pg
same,MCHC,"[1]; female, 20 mg/kg, day 2","32.30 (0.30)^d^,^e g/dL"
same,MCV,"[1]; female, 20 mg/kg, day 2",60.95 (2.18)^e fL
same,"Monocytes, absolute","[1]; female, 20 mg/kg, day 2",0.33 (0.26)^c 10^3/mm^3
same,"Neutrophils, absolute","[1]; female, 20 mg/kg, day 2",2.55 (2.72) 10^3/mm^3
same,Platelets,"[1]; female, 20 mg/kg, day 2",603.50 (524.00)^e 10^3/mm^3
same,RBC,"[1]; female, 20 mg/kg, day 2",7.63 (2.19) 10^6/mm^3
same,RDW,"[1]; female, 20 mg/kg, day 2",12.20 (0.57)^e %
same,"Reticulocytes, absolute","[1]; female, 20 mg/kg, day 2","325.95 (60.38)^c^,^d 10^3/mm^3"
same,WBC,"[1]; female, 20 mg/kg, day 2",8.15 (5.70) 10^3/mm^3
same,"Basophils, absolute","[1]; male, 5 mg/kg/day",0.03 (0.02) 10^3/mm^3
same,"Eosinophils, absolute","[1]; male, 5 mg/kg/day",0.37 (0.10) 10^3/mm^3
same,HDW,"[1]; male, 5 mg/kg/day",2.30 (0.09) g/dL
same,Hematocrits,"[1]; male, 5 mg/kg/day",43.75 (1.73) %
same,Hemoglobin,"[1]; male, 5 mg/kg/day",14.10 (0.98) g/dL
same,"LUC, absolute","[1]; male, 5 mg/kg/day",0.03 (0.02) 10^3/mm^3
same,"Lymphocytes, absolute","[1]; male, 5 mg/kg/day",6.03 (1.81) 10^3/mm^3
same,MCH,"[1]; male, 5 mg/kg/day",19.95 (1.35) pg
same,MCHC,"[1]; male, 5 mg/kg/day",32.10 (0.33) g/dL
same,MCV,"[1]; male, 5 mg/kg/day",61.75 (2.90) fL
same,"Monocytes, absolute","[1]; male, 5 mg/kg/day",0.22 (0.20) 10^3/mm^3
same,"Neutrophils, absolute","[1]; male, 5 mg/kg/day",2.04 (0.96) 10^3/mm^3
same,Platelets,"[1]; male, 5 mg/kg/day","1,052.00 (145.00) 10^3/mm^3"
same,RBC,"[1]; male, 5 mg/kg/day",7.06 (0.23) 10^6/mm^3
same,RDW,"[1]; male, 5 mg/kg/day",13.95 (1.15) %
same,"Reticulocytes, absolute","[1]; male, 5 mg/kg/day",359.65 (38.03) 10^3/mm^3
same,WBC,"[1]; male, 5 mg/kg/day",8.40 (2.53) 10^3/mm^3
same,"Basophils, absolute","[1]; male, 10 mg/kg/day",0.03 (0.02) 10^3/mm^3
same,"Eosinophils, absolute","[1]; male, 10 mg/kg/day",0.31 (0.24) 10^3/mm^3
same,HDW,"[1]; male, 10 mg/kg/day",2.20 (0.20) g/dL
same,Hematocrits,"[1]; male, 10 mg/kg/day",43.65 (1.20) %
same,Hemoglobin,"[1]; male, 10 mg/kg/day",14.20 (0.65) g/dL
same,"LUC, absolute","[1]; male, 10 mg/kg/day",0.03 (0.02) 10^3/mm^3
same,"Lymphocytes, absolute","[1]; male, 10 mg/kg/day",6.69 (2.92) 10^3/mm^3
same,MCH,"[1]; male, 10 mg/kg/day",20.20 (0.55) pg
same,MCHC,"[1]; male, 10 mg/kg/day",32.35 (0.72) g/dL
same,MCV,"[1]; male, 10 mg/kg/day",62.60 (3.05) fL
same,"Monocytes, absolute","[1]; male, 10 mg/kg/day",0.28 (0.10) 10^3/mm^3
same,"Neutrophils, absolute","[1]; male, 10 mg/kg/day",1.85 (0.61) 10^3/mm^3
same,Platelets,"[1]; male, 10 mg/kg/day","1,086.00 (192.25) 10^3/mm^3"
same,RBC,"[1]; male, 10 mg/kg/day",7.06 (0.38) 10^6/mm^3
same,RDW,"[1]; male, 10 mg/kg/day",13.10 (1.13) %
same,"Reticulocytes, absolute","[1]; male, 10 mg/kg/day",314.20 (33.35)^c 10^3/mm^3
same,WBC,"[1]; male, 10 mg/kg/day",10.05 (3.28) 10^3/mm^3
same,"Basophils, absolute","[1]; male, 20 mg/kg, day 2",0.03 (0.03) 10^3/mm^3
same,"Eosinophils, absolute","[1]; male, 20 mg/kg, day 2","0.15 (0.06)^c^,^d^,^e 10^3/mm^3"
same,HDW,"[1]; male, 20 mg/kg, day 2",2.44 (0.25)^e g/dL
same,Hematocrits,"[1]; male, 20 mg/kg, day 2","37.30 (3.70)^d^,^e %"
same,Hemoglobin,"[1]; male, 20 mg/kg, day 2","12.10 (1.00)^d^,^e g/dL"
same,"LUC, absolute","[1]; male, 20 mg/kg, day 2","0.07 (0.05)^c^,^d^,^e 10^3/mm^3"
same,"Lymphocytes, absolute","[1]; male, 20 mg/kg, day 2","4.24 (1.79)^d^,^e 10^3/mm^3"
same,MCH,"[1]; male, 20 mg/kg, day 2",20.00 (0.60) pg
same,MCHC,"[1]; male, 20 mg/kg, day 2",31.80 (0.50) g/dL
same,MCV,"[1]; male, 20 mg/kg, day 2",62.50 (2.10) fL
same,"Monocytes, absolute","[1]; male, 20 mg/kg, day 2","0.93 (0.29)^c^,^d^,^e 10^3/mm^3"
same,"Neutrophils, absolute","[1]; male, 20 mg/kg, day 2","8.40 (3.42)^c^,^d^,^e 10^3/mm^3"
same,Platelets,"[1]; male, 20 mg/kg, day 2","728.00 (86.00)^c^,^d^,^e 10^3/mm^3"
same,RBC,"[1]; male, 20 mg/kg, day 2","6.04 (0.47)^d^,^e 10^6/mm^3"
same,RDW,"[1]; male, 20 mg/kg, day 2",14.30 (1.20) %
same,"Reticulocytes, absolute","[1]; male, 20 mg/kg, day 2",373.30 (106.50)^e 10^3/mm^3
same,WBC,"[1]; male, 20 mg/kg, day 2","13.70 (4.90)^c^,^d 10^3/mm^3"
same,APTT,"[2]; female, 5 mg/kg",10.60 (0.70) s
same,Fibrinogen,"[2]; female, 5 mg/kg",223.00 (80.00) mg/dL
same,PT,"[2]; female, 5 mg/kg",16.30 (1.40) s
same,APTT,"[2]; female, 10 mg/kg",10.85 (2.43) s
same,Fibrinogen,"[2]; female, 10 mg/kg",283.00 (36.50) mg/dL
same,PT,"[2]; female, 10 mg/kg",17.05 (0.60) s
same,APTT,"[2]; female, 20 mg/kg, day 2","29.20 (20.65)^b^,^c^,^d s"
same,Fibrinogen,"[2]; female, 20 mg/kg, day 2",83.00 (151.75)^d mg/dL
same,PT,"[2]; female, 20 mg/kg, day 2","23.45 (9.75)^b^,^c s"
same,APTT,"[2]; male, 5 mg/kg",14.80 (0.98) s
same,Fibrinogen,"[2]; male, 5 mg/kg",262.50 (9.00) mg/dL
same,PT,"[2]; male, 5 mg/kg",15.95 (0.50) s
same,APTT,"[2]; male, 10 mg/kg",14.60 (1.05) s
same,Fibrinogen,"[2]; male, 10 mg/kg",261.00 (54.75) mg/dL
same,PT,"[2]; male, 10 mg/kg",17.50 (1.40) s
same,APTT,"[2]; male, 20 mg/kg, day 2","18.50 (3.13)^b^,^c^,^d s"
same,Fibrinogen,"[2]; male, 20 mg/kg, day 2","98.00 (18.50)^b^,^c^,^d mg/dL"
same,PT,"[2]; male, 20 mg/kg, day 2","21.25 (1.40)^b^,^c s"
